Measured values taken from ChEMBL document CHEMBL4619771, “Terpenoids from the Liverwort Plagiochila fruticosa and Their Antivirulence Activity against Candida albicans” (2020).
The source made the active and inactive calls. The rule behind the calls is not given here.

What was measured:
Candida albicans [1] = assay: Antifungal activity against wild-type Candida albicans SC5314 assessed as reduction in filamentous growth; assay type: functional, organism-based
Candida albicans [2] = assay: Antifungal activity against Candida albicans DSY654 assessed as reduction in filamentous growth; assay type: functional, organism-based
Candida albicans [3] = assay: Antifungal activity against Candida albicans DSY654 assessed as reduction in number of adherent fungal cells on human A549 cells after 90 mins by calcofluor White staining based fluorescent microscopy; assay type: functional, organism-based
Candida albicans [4] = assay: Upregulation of NRG1 gene expression in Candida albicans DSY654 at 4 ug/ml after 1.5 to 6 hrs by RT-qPCR assay relative to control; assay type: functional
Candida albicans [5] = assay: Antifungal activity against Candida albicans DSY654 assessed as inhibition of massive filamentation at 4 to 32 ug/ml; assay type: functional, organism-based
Candida albicans [6] = assay: Antifungal activity against Candida albicans DSY654 assessed as inhibition of biofilm formation incubated for 24 hrs by fluorescent microscopy; assay type: functional, organism-based
Candida albicans [7] = assay: Downregulation of HWP1 gene expression in Candida albicans DSY654 at 4 ug/ml after 1.5 to 6 hrs by RT-qPCR assay; assay type: functional, organism-based
Candida albicans [8] = assay: Downregulation of ALS3 gene expression in Candida albicans DSY654 at 4 ug/ml after 1.5 to 6 hrs by RT-qPCR assay; assay type: functional, organism-based
Candida albicans [9] = assay: Downregulation of ECE1 gene expression in Candida albicans DSY654 at 4 ug/ml after 1.5 to 6 hrs by RT-qPCR assay; assay type: functional, organism-based
Candida albicans [10] = assay: Downregulation of CDC35 gene expression in Candida albicans DSY654 at 4 ug/ml after 1.5 to 6 hrs by RT-qPCR assay; assay type: functional, organism-based
Candida albicans [11] = assay: Downregulation of UME6 gene expression in Candida albicans DSY654 at 4 ug/ml after 1.5 to 6 hrs by RT-qPCR assay; assay type: functional, organism-based
Candida albicans [12] = assay: Upregulation of PDE2 gene expression in Candida albicans DSY654 at 4 ug/ml after 1.5 to 6 hrs by RT-qPCR assay; assay type: functional, organism-based
Candida albicans [13] = assay: Downregulation of RAS1 gene expression in Candida albicans DSY654 at 4 ug/ml after 1.5 to 6 hrs by RT-qPCR assay; assay type: functional, organism-based
Candida albicans [14] = assay: Antifungal activity against Candida albicans DSY654 assessed as inhibition of biofilm formation incubated for 24 hrs by XTT assay; assay type: functional, organism-based
Candida albicans [15] = assay: Antifungal activity against Candida albicans DSY654 assessed as inhibition of yeast to hyphal morphological transition measured at 6 hrs by fluorescent microscopy; assay type: functional, organism-based

C=C1[C@@H](O)[C@@H]2[C@H](C[C@@H](OC(=O)CCc3ccccc3)/C(CO)=C/[C@@H](OC(C)=O)[C@H]1O)[C@]2(C)CO
Activity (Candida albicans [1]): inactive

CC(=O)O[C@H]1/C(C)=C/[C@@H]2[C@H](C[C@@H](OC(=O)CCc3ccccc3)/C(CO)=C/[C@H]1O)[C@]2(C)CO
Activity (Candida albicans [1]): inactive

CC(C)[C@@]1(O)C(=O)C[C@]2(C)C[C@]3(O)C(=CC(=O)[C@H]3C)[C@@H](C)CC[C@H]21
Activity (Candida albicans [1]): inactive

CC(C)[C@]1(O)C(=O)C[C@@]2(C)CC3=C([C@H](C)CC[C@@H]21)[C@H](O)CC3=O
Activity (Candida albicans [1]): inactive

CC(=O)O[C@@H]1/C=C(\CO)[C@H](OC(=O)CCc2ccccc2)C[C@H]2[C@@H](/C=C(\C)[C@@H]1O)[C@@]2(C)CO
Activity (Candida albicans [1]): inactive

C=C1CC[C@@H](O)[C@]2(C)CC[C@H]3[C@@H]([C@@H]12)[C@@H](C(C)(C)O)CC[C@@H]3C
Activity (Candida albicans [1]): inactive

C=C1CC[C@H]2[C@@H](/C=C(\C)CC[C@H]1O)[C@@H](C(C)(C)O)CC[C@@H]2C
Activity (Candida albicans [2]): Active
Activity (Candida albicans [1]): inactive

CC(C)[C@@]1(O)C(=O)C[C@]2(C)CC3=C(C(=O)C[C@@]3(C)O)[C@@H](C)CC[C@H]21
Activity (Candida albicans [1]): inactive

C=C1[C@@H](O)[C@@H]2[C@H](C[C@@H](O)/C(COC(=O)CCc3ccccc3)=C/[C@@H](O)[C@H]1OC(C)=O)[C@]2(C)CO
Activity (Candida albicans [1]): inactive

CC1=C2C[C@]3(C)CC(=O)[C@@](O)(C(C)C)[C@H]3CC[C@H](C)[C@]2(O)CC1=O
Activity (Candida albicans [1]): inactive

CC(=O)OC/C1=C\[C@@H](O)[C@@H](OC(C)=O)/C(C)=C/[C@@H]2[C@H](C[C@H]1OC(=O)CCc1ccccc1)[C@]2(C)CO
Activity (Candida albicans [1]): inactive

C=C1CC[C@H]2[C@@H](/C=C(\C)[C@H](OC(C)=O)[C@H](OC(C)=O)[C@@H]1OC(C)=O)C2(C)C
Activity (Candida albicans [3]): Dose-dependent effect
fold change (FC) (Candida albicans [4]): >10
Activity (Candida albicans [5]): Active
Activity (Candida albicans [6]): Dose-dependent effect
Activity (Candida albicans [7]): Active
Activity (Candida albicans [8]): Active
Activity (Candida albicans [9]): Active
Activity (Candida albicans [10]): Active
Activity (Candida albicans [2]): Active
Activity (Candida albicans [11]): Active
Activity (Candida albicans [1]): inactive
Activity (Candida albicans [12]): Active
Activity (Candida albicans [13]): Active
Activity (Candida albicans [14]): Dose-dependent effect
Activity (Candida albicans [15]): Dose-dependent effect

CC1=C2C[C@@]3(C)CC(=O)[C@](O)(C(C)C)[C@@H]3CC[C@H](C)[C@@]2(O)CC1=O
Activity (Candida albicans [1]): inactive

CC(=O)O[C@H]1OC=C(CO)[C@H]2[C@@H]1[C@@]1(CC[C@H]3[C@@H]2[C@@]3(CO)COC(=O)/C=C/c2ccccc2)CO1
Activity (Candida albicans [1]): inactive
